In patent US7384931B2, “Constrained compounds as CGRP-receptor antagonists” (Bristol-Myers Squibb Company, priority 2004, dated 2008):

The compounds below were run against CGRP receptor (Homo sapiens, UniProt O60894+Q16602) (assay: CGRP radioligand binding assay ([125I]-CGRP displacement, SK-N-MC homogenate)). Settings: displacement of [125I]-CGRP, room temperature 2 h.
Set-up: endogenous in cells; host or cells: SK-N-MC cells (homogenate/membrane pellet)
Procedure: CGRP Binding Assay. Tissue Culture. SK—N-MC cells were grown at 37° C. in 5% CO2 as a monolayer in medium consisting of MEM with Earle's salts and L-glutamine (Gibco) supplemented with 10% fetal bovine serum (Gibco). Cell Pellets. The cells were rinsed twice with phosphate-buffered saline (155 mM NaCl, 3.3 mM Na2HPO4, 1.1 mM KH2PO4, pH 7.4), and incubated for 5-10 min. at 4° C. in hypotonic lysis buffer consisting of 10 mM Tris (pH 7.4) and 5 mM EDTA. The cells were transferred from plates to polypropylene tubes (16×100 mm) and homogenized using a polytron. Homogenates were centrifuged at 32,000×g for 30 min. The pellets were resuspended in cold hypotonic lysis buffer with 0.1% mammalian protease inhibitor cocktail (Sigma) and assayed for protein concentration. The SK—N-MC homogenate was then aliquoted and stored at −80° C. until needed.
Radioligand Binding Assay. The compounds of invention were solubilized and carried through serial dilutions using 100% DMSO. Aliquots from the compound serial dilutions were further diluted 25 fold into assay buffer (50 mM Tris-Cl pH 7.5, 5 mM MgCl2, 0.005% Triton X-100) and transferred (volume 50 μl) into 96 well assay plates. [^125I]-CGRP (Amersham Biosciences) was diluted to 60 pM in assay buffer and a volume of 50 μl was added to each well. SK—N-MC pellets were thawed, diluted in assay buffer with fresh 0.1% mammalian protease inhibitor cocktail (Sigma), and homogenized again. SK—N-MC homogenate (5 μg/well) was added in a volume of 100 μl. The assay plates were then incubated at room temperature for 2 h. Assays were stopped by addition of excess cold wash buffer (20 mM Tris-Cl pH 7.5, 0.1% BSA) immediately followed by filtration over glass fiber filters (Whatman GF/B) previously soaked in 0.5% PEI. Non-specific binding was defined with 1 μM beta-CGRP. Protein bound radioactivity was determined using a gamma or scintillation counter. The IC50 was defined as the concentration of a compound of invention required to displace 50% of radioligand binding.

Sequence of CGRP receptor (Q16602 23-461): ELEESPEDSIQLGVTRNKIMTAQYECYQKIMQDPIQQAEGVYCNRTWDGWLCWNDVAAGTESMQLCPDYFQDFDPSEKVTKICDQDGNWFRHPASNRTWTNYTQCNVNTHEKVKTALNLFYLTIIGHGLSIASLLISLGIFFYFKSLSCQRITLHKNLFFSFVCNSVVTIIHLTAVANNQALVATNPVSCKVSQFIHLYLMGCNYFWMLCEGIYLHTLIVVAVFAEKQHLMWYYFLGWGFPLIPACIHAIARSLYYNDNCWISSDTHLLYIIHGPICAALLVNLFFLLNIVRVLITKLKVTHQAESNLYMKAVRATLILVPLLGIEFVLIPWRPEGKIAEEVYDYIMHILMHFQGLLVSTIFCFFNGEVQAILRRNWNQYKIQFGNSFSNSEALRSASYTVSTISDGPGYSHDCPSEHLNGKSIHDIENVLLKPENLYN
Sequence of CGRP receptor (O60894 27-148): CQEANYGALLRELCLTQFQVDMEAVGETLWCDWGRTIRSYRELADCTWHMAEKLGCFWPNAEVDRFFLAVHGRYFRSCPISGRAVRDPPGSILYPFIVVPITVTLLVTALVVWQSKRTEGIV

| IC50 [nM] | SMILES |
| --- | --- |
| 0.1 to 10 | CC(C)(C)CN1Cc2c(cc(Cl)c3[nH]ncc23)C[C@@H](CC(=O)Nc2ccc3c(c2)CCC2(C3)NC(=O)NC2=O)C1=O (mixture of isomers) [Example 86, (±)-1-[[(7S)-4-chloro-9-(2,2-dimethylpropyl)-3,6,7,8,9,10-hexahydro-8-oxoazepino[3,4-e]indazol-7-yl]yacetyl]-Amino-3′,4′-dihydro-^1H-spiro[imidazolidine-4,2′naphthalene]-2,5-dione] |
| 10 to 100 | CC(C)(C)CN1Cc2c(cc(Cl)c3[nH]ncc23)C[C@@H](CC(=O)Nc2ccc3c(c2)CC2(C3)NC(=O)NC2=O)C1=O (mixture of isomers) [Example 87, (±)-1-[[(7S)-4-chloro-9-(2,2-dimethylpropyl)-3,6,7,8,9,10-hexahydro-8-oxoazepino[3,4-e]indazol-7-yl]acetyl]-Amino-spiro[imidazolidine-4,2′-indane]-2,5-dione] |
| 100 to 1000 | CN1Cc2c(ccc3[nH]ncc23)C[C@@H](NC(=O)N2CCC(N3Cc4ccccc4NC3=O)CC2)C1=O [Example 2, 4-(2-Oxo-1,4-dihydro-2H-quinazolin-3-yl)-piperidine-1-carboxylic acid (9-methyl-8-oxo-3,6,7,8,9,10-hexahydro-2,3,9-triaza-(R)-cyclohepta[e]inden-7-yl)-amide] |
| 100 to 1000 | O=C(N[C@@H]1Cc2ccc3[nH]ncc3c2CN(CCN2CCCCC2)C1=O)N1CCC(N2Cc3ccccc3NC2=O)CC1 [Example 3, 4-(2-Oxo-1,4-dihydro-2H-quinazolin-3-yl)-piperidine-1-carboxylic acid [8-oxo-9-(2-piperidin-1-yl-ethyl)-3,6,7,8,9,10-hexahydro-2,3,9-triaza-(R)-cyclohepta[e]inden-7-yl]-amide] |
| 100 to 1000 | O=C(N[C@@H]1Cc2ccc3[nH]ncc3c2CN(CCN2CCCC2)C1=O)N1CCC(N2Cc3ccccc3NC2=O)CC1 [Example 4, 4-(2-Oxo-1,4-dihydro-2H-quinazolin-3-yl)-piperidine-1-carboxylic acid [8-oxo-9-(2-pyrrolidin-1-yl-ethyl)-3,6,7,8,9,10-hexahydro-2,3,9-triaza-(R)-cyclohepta[e]inden-7-yl]-amide] |
| 100 to 1000 | CN(C)CCN1Cc2c(ccc3[nH]ncc23)C[C@@H](NC(=O)N2CCC(N3Cc4ccccc4NC3=O)CC2)C1=O [Example 5, 4-(2-Oxo-1,4-dihydro-2H-quinazolin-3-yl)-piperidine-1-carboxylic acid [9-(2-dimethylamino-ethyl)-8-oxo-3,6,7,8,9,10-hexahydro-2,3,9-triaza-(R)-cyclohepta[e]inden-7-yl]-amide] |
| > 1000 | O=C1Nc2ccccc2C2(CCN(C(=O)N[C@@H]3Cc4ccc5[nH]ncc5c4CN(CCN4CCOCC4)C3=O)CC2)N1 [Example 8, ′H-Spiro[piperidine-4,4′-quinazolin]-2′(3′H)-one-1-carboxylic acid [9-(2-morpholin-4-yl-ethyl)-8-oxo-3,6,7,8,9,10-hexahydro-2,3,9-triaza-(R)-cyclohepta[e]inden-7-yl]-amide] |
| 100 to 1000 | C[C@@H](c1ccccc1)N1Cc2c(ccc3[nH]ncc23)C[C@@H](NC(=O)N2CCC3(CC2)NC(=O)Nc2ccccc23)C1=O [Example 9, ′^1H-Spiro[piperidine-4,4′-quinazolin]-2′(3′H)-one-1-carboxylic acid [8-oxo-9-(1-(S)-phenyl-ethyl)-3,6,7,8,9,10-hexahydro-2,3,9-triaza-(R)-cyclohepta[e]inden-7-yl]-amide] |
| 10 to 100 | O=C(N[C@@H]1Cc2ccc3[nH]ncc3c2CN(Cc2ccc(C(F)(F)F)cc2)C1=O)N1CCC(N2Cc3ccccc3NC2=O)CC1 [Example 13, 4-(2-Oxo-1,4-dihydro-2H-quinazolin-3-yl)-piperidine-1-carboxylic acid [8-oxo-9-(4-trifluoromethyl-benzyl)-3,6,7,8,9,10-hexahydro-2,3,9-triaza-(R)-cyclohepta[e]inden-7-yl]-amide] |
| 100 to 1000 | O=C1Nc2ccccc2C2(CCN(C(=O)N[C@@H]3Cc4ccc5[nH]ncc5c4CN(Cc4ccc(C(F)(F)F)cc4)C3=O)CC2)N1 [Example 14, ′H-spiro[piperidine-4,4′-quinazolin]-2′(3′H)-one-1-carboxylic acid [8-oxo-9-(4-trifluoromethyl-benzyl)-3,6,7,8,9,10-hexahydro-2,3,9-triaza-(R)-cyclohepta[e]inden-7-yl]-amide] |
| 10 to 100 | CC(C)N1Cc2c(ccc3[nH]ncc23)C[C@@H](NC(=O)N2CCC(N3Cc4ccccc4NC3=O)CC2)C1=O [Example 15, 4-(2-Oxo-1,4-dihydro-2H-quinazolin-3-yl)-piperidine-1-carboxylic acid (9-isopropyl-8-oxo-3,6,7,8,9,10-hexahydro-2,3,9-triaza-(R)-cyclohepta[e]inden-7-yl)-amide] |
| 10 to 100 | CC(C)(C)OC(=O)N1CCC(N2Cc3c(ccc4[nH]ncc34)C[C@@H](NC(=O)N3CCC(N4Cc5ccccc5NC4=O)CC3)C2=O)CC1 [Example 17] |
| 100 to 1000 | O=C(N[C@@H]1Cc2ccc3[nH]ncc3c2CN(C2CCNCC2)C1=O)N1CCC(N2Cc3ccccc3NC2=O)CC1 [Example 18, 4-(2-Oxo-1,4-dihydro-2H-quinazolin-3-yl)-piperidine-1-carboxylic acid (8-oxo-9-piperidin-4-yl-3,6,7,8,9,10-hexahydro-2,3,9-triaza-(R)-cyclohepta[e]inden-7-yl)-amide] |
| 10 to 100 | CC(C)(C)CN1Cc2c(ccc3[nH]ncc23)CC(NC(=O)N2CCC3(CC2)NC(=O)Nc2ccccc23)C1=O (stereo not shown) [Example 23, N-[9-(2,2-dimethylpropyl)-8-oxo-3,6,7,8,9,10-hexahydroazepino[3,4-e]indazol-7-yl]-2′-oxo-2′,3′dihydro-1H, 1′H-spiro[piperidine-4,4′-quinazoline]-1-carboxamide] |
| 100 to 1000 | CC(C)CN1Cc2c(ccc3[nH]ncc23)CC(NC(=O)N2CCC3(CC2)NC(=O)Nc2ccccc23)C1=O (stereo not shown) [Example 25, N-[9-(2-methylpropyl)-8-oxo-3,6,7,8,9,10-hexahydroazepino[3,4-e]indazol-7-yl]-2′-oxo-2′,3′-dihydro-1H, 1′H-spiro[piperidine-4,4′-quinazoline]-1-carboxamide] |
| 100 to 1000 | O=C1Nc2ccccc2C2(CCN(C(=O)NC3Cc4ccc5[nH]ncc5c4CN(Cc4ccncc4)C3=O)CC2)N1 (stereo not shown) [Example 29, N-[9-pyridin-4-ylmethyl-8-oxo-3,6,7,8,9,10-hexahydroazepino[3,4-e]indazol-7-yl]-2′-oxo-2′,3′-dihydro-1H,1′H-spiro[piperidine-4,4′-quinazoline]-1-carboxamide] |
| > 1000 | CN1Cc2cc(OCc3ccccc3)ccc2CC(NC(=O)N2CCC(N3Cc4ccccc4NC3=O)CC2)C1=O (stereo not shown) [Example 31, 4-(2-Oxo-1,4-dihydro-2H-quinazolin-3-yl)-piperidine-1-carboxylic acid (8-benzyloxy-2-methyl-3-oxo-2,3,4,5-tetrahydro-1H-benzo[c]azepin-4-yl)-amide] |
| 100 to 1000 | CN1Cc2cc(O)ccc2CC(NC(=O)N2CCC(N3Cc4ccccc4NC3=O)CC2)C1=O (stereo not shown) [Example 32, 4-(2-Oxo-1,4-dihydro-2H-quinazolin-3-yl)-piperidine-1-carboxylic acid (8-hydroxy-2-methyl-3-oxo-2,3,4,5-tetrahydro-1H-benzo[c]azepin-4-yl)-amide] |
| > 1000 | CN1Cc2c(cc(Cl)c(O)c2Cl)CC(NC(=O)N2CCC(N3Cc4ccccc4NC3=O)CC2)C1=O (stereo not shown) [Example 33, 4-(2-Oxo-1,4-dihydro-2H-quinazolin-3-yl)-piperidine-1-carboxylic acid (7,9-dichloro-8-hydroxy-2-methyl-3-oxo-2,3,4,5-tetrahydro-1H-benzo[c]azepin-4-yl)-amide] |
| 100 to 1000 | CN1Cc2c(cc(Br)c(O)c2Br)CC(NC(=O)N2CCC(N3Cc4ccccc4NC3=O)CC2)C1=O (stereo not shown) [Example 34, 4-(2-Oxo-1,4-dihydro-2H-quinazolin-3-yl)-piperidine-1-carboxylic acid (7,9-dibromo-8-hydroxy-2-methyl-3-oxo-2,3,4,5-tetrahydro-1H-benzo[c]azepin-4-yl)-amide] |
| 10 to 100 | O=C(C[C@@H]1Cc2cc(Cl)c3[nH]ncc3c2CN(Cc2ccncc2)C1=O)N1CCC(c2cc(-c3ccccc3)[nH]n2)CC1 [Example 35, (S)-4-Chloro-7-(2-oxo-2-(4-(5-phenyl-1H-pyrazol-3-yl)piperidin-1-yl)ethyl)-9-(pyridin-4-ylmethyl)-6,7,9,10-tetrahydroazepino[3,4-e]indazol-8(3H)-one] |
| 100 to 1000 | O=C(C[C@@H]1Cc2ccc3[nH]ncc3c2CN(Cc2ccccc2)C1=O)N1CCC(N2Cc3ccccc3NC2=O)CC1 [Example 38, (S)-9-Benzyl-7-(2-oxo-2-(4-(2-oxo-1,2-dihydroquinazolin-3(4H)-yl)piperidin-1-yl)ethyl)-6,7,9,10-tetrahydroazepino[3,4-e]indazol-8(3H)-one] |
